Laboratory results published in article PMC5253108 (European journal of medicinal chemistry, 2016).
Where two headings read alike, the source gives them in different places.

Experiments:
HepG2 liver cells = experiment: In vitro cytotoxicity, Cell-Titer Glo viability, HepG2; format: cell-based; details: 48 hours
[1] = In vitro liver microsomal stability; format: in vitro ADME, mouse; details: for metabolically converted after one hour: corresponds to mouse liver microsome values of Table 1
HEK293 kidney cells = format: cell-based; details: 48 hours, Cell-Titer Glo
[2] = test system: BEAS2B lung epithelial cells; experiment: In vitro cytotoxicity, Cell-Titer Glo viability, BEAS2B; format: cell-based; details: 48 hours
Swiss Webster mice [3] = experiment: Rotarod assay of sensorimotor coordination in mice; details: for sensorimotor impairment on rotarod: 40 mg/kg i.p., Swiss Webster mice, 10, 30 and 60 min
[4] = In vitro liver microsomal stability; format: in vitro ADME; details: human
[5] = Pharmacokinetic study in mice; format: in vivo, mouse; details: after 5 mg/kg i.p. of 16, mouse blood
airway eosinophilia = details: cited from earlier work
[6] = test system: guinea pig tracheal rings; details: cited from earlier work
Swiss Webster mice [7] = details: cited from earlier work
[8] = Solubility in rotarod vehicle; details: 50% PBS, 40% propylene glycol, 10% DMSO; for 40 mg/kg i.p. dosing
[9] = Solubility at 10 µM in PBS with 1% DMSO; format: physicochemical; details: aqueous buffer, kinetic from dmso stock

Compound | Toxicity in HEPG2 (Liver) LD50 (HepG2 liver cells) [µM] | loss at 1 h in mouse liver microsomes [1] | Toxicity in HEK293 (Kidney) LD50 (HEK293 kidney cells) [µM] | Toxicity in BEAS 2B (Lung) LD50 [2] [µM] | sensorimotor impairment on rotarod (Swiss Webster mice [3]) | also measured
[2H]C([2H])([2H])Oc1ccc2c(c1)C(=O)N1CCC[C@H]1c1c(C(=O)OCC)ncn1-2 [Compound 5a] | >400 | less than 20% | >400 | >400 |  | 
CCOC(=O)c1ncn2c1[C@@H]1CCCN1C(=O)c1cc(O)ccc1-2 [Compound 6] | >400 | less than 20% |  | >400 | did not induce sensorimotor impairment | 
[2H]C([2H])([2H])Oc1ccc2c(c1)C(=O)N1CCC[C@H]1c1c(C(=O)OC(C)(C)C)ncn1-2 [Compound 7a] | >400 |  | >100 | >200 |  | 
CC(C)(C)OC(=O)c1ncn2c1[C@@H]1CCCN1C(=O)c1cc(O)ccc1-2 [Compound 8] | >400 |  |  | >400 |  | 
COc1ccc2c(c1)C(=O)N1CCC[C@H]1c1c(C(=O)O)ncn1-2 [Compound 9, (S)-7-Methoxy-9-oxo-11,12,13,13a-tetrahydro-9H-benzo[e]imidazo[5,1-c]pyrrolo[1,2-a][1,4]di-azepine-1-carboxylic acid] | >400 |  | >400 | >400 |  | remaining at 1 h ([4]; liver microsomes): < 80%; metabolite in blood samples [5]: not detected in any blood samples; airway eosinophilia (airway eosinophilia): decreased airway eosinophilia; airway eosinophilia (airway eosinophilia; listed as XHE-III-74A): significantly reduced airway eosinophilia; airway muscle constriction caused by substance P [6]: significantly reduced airway muscle constriction; CNS effects (Swiss Webster mice [7]): no CNS effects
[2H]C([2H])([2H])Oc1ccc2c(c1)C(=O)N1CCC[C@H]1c1c(C(=O)O)ncn1-2 [Compound 9a] | >400 | less than 20% | >400 | >400 | did not induce sensorimotor impairment | 
COC(=O)c1ncn2c1[C@@H]1CCCN1C(=O)c1cc(OC)ccc1-2 [Compound 10, (S)-Methyl-7-methoxy-9-oxo-11,12,13,13a-tetrahydro-9H-benzo[e]imidazo[5,1-c]pyrrolo[1,2-a][1,4]diazepine-1-carboxylate] | >400 |  | >400 | >400 | did not induce any sensorimotor impairment | metabolically converted after one hour [1]: 30%
[2H]C([2H])([2H])Oc1ccc2c(c1)C(=O)N1CCC[C@H]1c1c(C(=O)OC)ncn1-2 [Compound 10a] | >400 | less than 20% | >400 | >400 | most severe motor impairment | metabolically converted after one hour [1]: 15%
COc1ccc2c(c1)C(=O)N1CCC[C@H]1c1c(C(=O)OCC(C)C)ncn1-2 [Compound 11, (S)-Isobutyl-7-methoxy-9-oxo-11,12,13,13a-tetrahydro-9H-benzo[e]imidazo[5,1-c]pyrrolo[1,2-a][1,4]diazepine-1-carboxylate] | >200 |  | >100 | >200 |  | remaining at 1 h ([4]; microsomes): < 80%; solubility in the vehicle [8]: not soluble in the vehicle
[2H]C([2H])([2H])Oc1ccc2c(c1)C(=O)N1CCC[C@H]1c1c(C(=O)OCC(C)C)ncn1-2 [Compound 11a] | >200 |  | >100 | >200 | most severe motor impairment | remaining at 1 h ([4]; microsomes): < 80%
COc1ccc2c(c1)C(=O)N1CCC[C@H]1c1c(C(=O)OC(C(F)(F)F)C(F)(F)F)ncn1-2 [Compound 12] | >400 |  | >200 | >400 |  | solubility [9]: < 10 µM; solubility in the vehicle [8]: not soluble in the vehicle
[2H]C([2H])([2H])Oc1ccc2c(c1)C(=O)N1CCC[C@H]1c1c(C(=O)OC(C(F)(F)F)C(F)(F)F)ncn1-2 [Compound 12a] | >400 |  | >200 | >400 |  | remaining at 1 h ([4]; microsomes): < 80%; solubility in the vehicle [8]: not soluble in the vehicle
CCSC(=O)c1ncn2c1[C@@H]1CCCN1C(=O)c1cc(OC)ccc1-2 [Compound 13] | >100 |  | >100 | >100 |  | solubility [9]: < 10 µM; solubility in the vehicle [8]: not soluble in the vehicle
[2H]C([2H])([2H])Oc1ccc2c(c1)C(=O)N1CCC[C@H]1c1c(C(=O)SCC)ncn1-2 [Compound 13a] | >100 |  | >100 | >100 |  | solubility [9]: < 10 µM; solubility in the vehicle [8]: not soluble in the vehicle
COc1ccc2c(c1)C(=O)N1CCC[C@H]1c1c(C(=O)SC(C)(C)C)ncn1-2 [Compound 14] | >100 |  | 18.8 ± 2.4 | >100 |  | solubility [9]: < 10 µM; solubility in the vehicle [8]: not soluble in the vehicle
[2H]C([2H])([2H])Oc1ccc2c(c1)C(=O)N1CCC[C@H]1c1c(C(=O)SC(C)(C)C)ncn1-2 [Compound 14a] | >100 |  | 16.8 ± 2.0 | >100 |  | solubility [9]: < 10 µM; solubility in the vehicle [8]: not soluble in the vehicle
CNC(=O)c1ncn2c1[C@@H]1CCCN1C(=O)c1cc(OC)ccc1-2 [Compound 15] | >400 |  | >100 | >400 | most severe motor impairment | 
[2H]C([2H])([2H])Oc1ccc2c(c1)C(=O)N1CCC[C@H]1c1c(C(=O)NC)ncn1-2 [Compound 15a] | >400 |  | >100 | >400 |  | 
[2H]C([2H])([2H])Oc1ccc2c(c1)C(=O)N1CCC[C@H]1c1c(C(=O)N(C)C)ncn1-2 [Compound 16a] | >400 | less than 20% | >400 | >400 | did not induce sensorimotor impairment | 
CCNC(=O)c1ncn2c1[C@@H]1CCCN1C(=O)c1cc(OC)ccc1-2 [Compound 17] | >400 |  | >400 | >400 |  | 
[2H]C([2H])([2H])Oc1ccc2c(c1)C(=O)N1CCC[C@H]1c1c(C(=O)NCC)ncn1-2 [Compound 17a] | >400 | less than 20% |  |  | did not induce sensorimotor impairment | 
COc1ccc2c(c1)C(=O)N1CCC[C@H]1c1c(C(=O)NC(C)(C)C)ncn1-2 [Compound 18] | >400 |  | >200 | >400 |  | 
[2H]C([2H])([2H])Oc1ccc2c(c1)C(=O)N1CCC[C@H]1c1c(C(=O)NC(C)(C)C)ncn1-2 [Compound 18a] | >400 |  |  |  | most severe motor impairment | 
COc1ccc2c(c1)C(=O)N1CCC[C@H]1c1c(C(=O)NC3CC3)ncn1-2 [Compound 19] | >400 | less than 20% | >200 | >400 |  | remaining at 1 h ([4]; microsomes): < 80%; toxicity in HEK293 cells (HEK293 kidney cells): some toxicity
[2H]C([2H])([2H])Oc1ccc2c(c1)C(=O)N1CCC[C@H]1c1c(C(=O)NC3CC3)ncn1-2 [Compound 19a] | >400 | less than 20% |  |  |  | toxicity in HEK293 cells (HEK293 kidney cells): some toxicity
CN1C(=O)CN=C(c2ccccc2)c2cc(Cl)ccc21 [diazepam, reference compound] |  |  |  |  |  | sensorimotor impairment on rotarod, positive control (Swiss Webster mice [3]; 5 mg/kg i.p., Swiss Webster mice): greatest impairment of sensorimotor steadiness at 10 minutes
